Laboratory results: patent publication US20240091227A1, “Use Of 2-Phenyl-6-(1H-Imidazol-1-YL) Quinazoline For Treating Neurodegenerative Diseases, Preferably Alzheimer's Disease” (ROTTAPHARM BIOTECH S.R.L., priority 2019, published 2024)
Several values for one entry are separate records, joined by “and”; a condition that tells them apart may be missing. Identical values can stand only once. Like-named read-outs stand apart in the source and are kept apart here.

Legend:
[1] = system: COX-2; test: COX-2 gene expression in IL-1β-stimulated U373 MG astrocytoma cells (RT-PCR); type: cell-based, human; settings: IL-1β 2 ng/ml
Protocol: (§1) A model of astrocytes, the human glioblastoma astrocytoma cell line U373 MG (Uppsala), was used for these experiments. Adherent cells were grown in DMEM medium supplemented with 10% FBS at 37° C. with CO2. 72 hours after plating, cells were treated for 1 h with 2-phenyl-6-(1H-imidazol-1-yl)quinazoline (CR4056) (10 μM) prepared according to EP2066653 and then stimulated with the pro-inflammatory cytokine IL-1β (2 ng/mL) for further 6 and 24 h.
(§2) At the end of incubation period, total RNA was obtained and retro-transcribed using the High-Capacity cDNA Reverse Transcription Kit (Thermo Fisher Scientific). The levels of expression of COX-2, IL-1β, IL-6 and TNFα were evaluated by RT-PCR analysis, performed using the Applied Biosystems 7500 Fast Real-Time PCR System using specific TaqMan assays and, as an endogenous control, the 18S Pre-Developed TaqMan® Assay (Thermo Fisher Scientific). The data analysis, with normalisation on 18S amplified values, was according to Thermo Fisher Scientific specific instructions for gene expression relative quantification. All individual data were the result of at least three different measurements for each sample.
(§3) Percentage of gene expression inhibition observed in U373 cells stimulated with IL-1β 2 ng/ml and exposed to 10 μM CR4056 for the indicated time.

[2] = system: IL-6; test: IL-6 gene expression in IL-1β-stimulated U373 MG astrocytoma cells (RT-PCR); type: cell-based, human; settings: IL-1β 2 ng/ml
Protocol: as §1, §2, §3

[3] = system: TNFα; test: TNFα gene expression in IL-1β-stimulated U373 MG astrocytoma cells (RT-PCR); type: cell-based, human; settings: IL-1β 2 ng/ml
Protocol: as §1, §2, §3

[4] = system: Rats treated with scopolamine; test: Passive avoidance in scopolamine-induced memory impairment; type: in vivo, rat
Protocol: FIG. 3 reports results of a passive avoidance test in the model of scopolamine-induced memory loss. Rats treated with scopolamine (Sco, 1 mg/kg) or physiological solution (Sal) received CR4056 10 mg/kg bid or its vehicle (MC). t student test. *p<0.05; **P<0.01 (n=6).
Scopolamine, a nonselective muscarinic receptor antagonist, produces a blocking of the activity of the muscarinic acetylcholine receptor, and the concomitant appearance of transient cognitive amnesia and electrophysiological changes, which resemble those observed in Alzheimer's disease. Therefore, scopolamine administration may be considered as a psychopharmacological model of Alzheimer's disease (Lenz R A, Psychopharmacology (Berl), 2012). Passive avoidance is a behavioural model of memory impairment.
The apparatus consisted of a two-compartment box: light and dark compartments separated by a door. The rat was placed in the center of the light compartment, with the door between two compartments closed. After 4 seconds, the door was opened and the latency time, i.e., the time taken by the rat to enter all four paws into the dark compartment was recorded.
Once the rat moved completely in the dark compartment, the door was closed and immediately a mild foot shock was delivered through the grid floor. Thus, during the initial phase the animal learned that the moving to the dark compartment had negative consequences. […]

[5] = Brain penetration: plasma and brain levels by LC/MS/MS after oral administration; type: in vivo, rat; settings: 30 mg/kg PO, fasted; for concentration at 1 h / Kp at 1 h: male, Sprague Dawley, rat, po, 30 mg/kg; for Kp at 1 h: brain/plasma
Protocol: CR 4056 was determined in rat plasma and in rat brain and plasma using a LC/MS/MS method. Male Sprague Dawley rats, Harlan, were treated orally with a CR 4056 suspension (Methocel 0.5%) at the dose of 30 mg/kg. Oral administration was performed by gastric gavage to 3 animals per group (5 ml/kg). The compound was detected in plasma and in brain 1 hour after the treatment.
Each rat brain was weighted and cut in half. Each cerebral hemisphere was weighted and homogenized with two different methodologies. One was liquidization by Ultra turrax tube drive (IKA), adding an aliquot of buffer solution (10 mM ammonium formate pH 3.5) three times the weight of the hemisphere. Then 30 μl of the extract solution were added to 0.25 ml of methanol in a 1.5 ml eppendorf tube, vortex-mixed and centrifugated for 5 min at 13500 rpm at 4° C. the supernatant was transferred to a 96-deep well plates 2 mL round (Axygen) and injected into the LC/MS/MS system. The second one was cryogenic grinding with Mikro Dismembrator (Sartorius). Each cerebral hemisphere was weighted, put in a 20 mL teflon vessel with a steel sphere (7.85 g/ml dia 10 mm) and frozen by immersion in liquid nitrogen for 5 minutes. The deep frozen brain was ground with Mikro Dismembrator at 2500 rpm for 30 sec, the freezing/grinding cycle was repeated twice. A portion of powder was accurately weighted (ca. 10 mg) in a 1.5 ml eppendorf tube, 0.25 ml of methanol were then added. After vortex-mixing and centrifugation for 5 min at 13500 rpm at 4° C., the supernatant was placed in a 96-deep well plates 2 mL round (Axygen) and injected into the LC/MS/MS system. Both methods used for homogenization gave similar results showing that the extraction efficiency was similar for both methods.
Individual plasma and brain levels and brain plasma ratio after oral administration (30 mg/kg) of CR 4056 suspension to male Sprague Dawley rats in fasted conditions (rats were scarified 60 minutes after the PO administration) are shown in the following table.

[6] = system: rats; test: Irwin test (neurobehavioral changes); type: in vivo, rat; settings: suprapharmacological concentrations
Source text: These findings indicate that CR4056 could be a safe drug for treating neurodegenerative diseases, and, in particular, Alzheimer disease.

[7] = individual male Sprague Dawley rats, 1 h

Brain/plasma ratio [5, 7]: 12.4 and 11.4 | Mean Brain Concentration [5, 7]: 35492 ng/g and 27745 ng/g | Plasmatic Concentration [5, 7]: 2860 ng/mL and 2430 ng/mL | concentration at 1 h ([5]; brain, individual male Sprague Dawley rats, read-out: Mean Brain Concentration): 33600 ng/g | concentration at 1 h ([5]; brain, male Sprague Dawley rats, read-out: Mean Brain Concentration, mean of 3 rats): 32300 ng/g | Kp at 1 h ([5]; individual male Sprague Dawley rats, read-out: Brain/plasma ratio): 11.7 | Kp at 1 h ([5]; male Sprague Dawley rats, read-out: Brain/plasma ratio, mean of 3 rats): 11.8 | concentration at 1 h ([5]; plasma, individual male Sprague Dawley rats, read-out: Plasmatic Concentration): 2860 ng/mL | concentration at 1 h ([5]; plasma, male Sprague Dawley rats, read-out: Plasmatic Concentration, mean of 3 rats): 2720 ng/mL | Neurobehavioral changes (Irwin test) [6]: neither neurobehavioral changes
SMILES: c1ccc(-c2ncc3cc(-n4ccnc4)ccc3n2)cc1 [CR4056, 2-phenyl-6-(1H-imidazol-1-yl)quinazoline]
Percentage of gene expression inhibition, COX-2 ([1]; 10 μM CR4056, 6 h): 45% | Percentage of gene expression inhibition, COX-2 ([1]; 10 μM CR4056, 24 h): 48% | Percentage of gene expression inhibition, IL-6 ([2]; 10 μM CR4056, 6 h): not yet modulated | Percentage of gene expression inhibition, IL-6 ([2]; 10 μM CR4056, 24 h): 39% | Percentage of gene expression inhibition, TNF-α ([3]; 10 μM CR4056, 6 h): not yet modulated | Percentage of gene expression inhibition, TNF-α ([3]; 10 μM CR4056, 24 h): 52% | Escape latency time, passive avoidance, sham animals ([4]; rats not treated with scopolamine, CR4056 10 mg/kg bid vs vehicle (MC)): not different from its vehicle | Escape latency time, passive avoidance, scopolamine-treated animals ([4]; rats, scopolamine 1 mg/kg sc, CR4056 10 mg/kg bid orally): counteracted the memory impairment
